Legend:
Type in all cases: in vivo, mouse
C57 and BTBR mice [1] = experiment: Social preference procedure: novelty preference test; settings: 1 mg/kg IP
Method: (§1) All drugs were dissolved in physiological 0.9% saline and administered at a constant volume of 1 ml/100 g body weight. Because all drugs utilized in these studies were synthesized as hydrochloride (HCl) salts, they were weighed as salts prior to the preparation of all solutions. All drugs at all concentrations are readily dissolved in an aqueous solution at normal pH. Injections of all drugs were administered intraperitoneally (IP) to mimic pharmacokinetic parameters typical of oral administration, without the behaviour-impairing effects of gavage stress.
(§2) This assay was conducted in adult male C57 and BTBR mice (n=6 per group) in a dedicated conditioning room where ambient light, sound, and human contact were tightly controlled.
Social preference chambers consisted of two polycarbonate boxes (13.5 cm wide×22.5 cm tall×31.0 cm deep), floored with rough-textured black ABS plastic, and connected to one another by a 1.25″ PVC T-junction. An infrared photobeam emitter/detector array was mounted at each intersection of the T-junction and each preference compartment, and as a mouse traversed the apparatus, it would break the photobeam upon entry to or exit from each preference compartment. Beam breaks started or stopped a counter on an interfaced computer, allowing automated collection of time spent in each compartment. At the end of each test, data were reported as time (in seconds) spent in each compartment, the number of entries into each compartment, and the average time spent in each compartment following an entry. Social preference tests were conducted in an iterative manner, with each test subject completing four distinct phases as described below. Between testing sessions, chambers were sanitized by wiping the insides with a disinfectant product provided by the UAMS Department of Laboratory Animal Medicine. At the end of the week (upon completion of all phases of the procedure), each apparatus was disassembled and all parts were sanitized. No food or water were available during social preference sessions, but were available in the home cage immediately afterwards. […]

C57 and BTBR mice [2] = experiment: Compartment entries during social novelty test (proxy for locomotor stimulant effects); settings: for total entries during social novelty test: relative to saline; for compartment entries during social novelty test, change of stimulation with dose: various doses
Excerpt: (§3) Social preference chambers consisted of two polycarbonate boxes (13.5 cm wide×22.5 cm tall×31.0 cm deep), floored with rough-textured black ABS plastic, and connected to one another by a 1.25″ PVC T-junction. An infrared photobeam emitter/detector array was mounted at each intersection of the T-junction and each preference compartment, and as a mouse traversed the apparatus, it would break the photobeam upon entry to or exit from each preference compartment. Beam breaks started or stopped a counter on an interfaced computer, allowing automated collection of time spent in each compartment. At the end of each test, data were reported as time (in seconds) spent in each compartment, the number of entries into each compartment, and the average time spent in each compartment following an entry. Social preference tests were conducted in an iterative manner, with each test subject completing four distinct phases as described below. Between testing sessions, chambers were sanitized by wiping the insides with a disinfectant product provided by the UAMS Department of Laboratory Animal Medicine. At the end of the week (upon completion of all phases of the procedure), each apparatus was disassembled and all parts were sanitized. No food or water were available during social preference sessions, but were available in the home cage immediately afterwards.
Quantifying total entries into the preference compartments provides a proxy measurement for locomotor stimulant effects of the various doses of the various test drugs. This establishes a limit to the drug doses that can be tested in the social preference procedure, as induction of locomotor stimulant effects confounds preference assessments (because mice stop attending to the social stimuli in each compartment and instead spend their time engaged in locomotor behavior.) Motor activity varies across the distinct phases of social preference testing, in part because the habituation session is twice as long (30 minutes) as the novelty, sociability, and social novelty tests (15 minutes each), but also because mice emit high levels of exploratory behavior in novel environments. Thus, as familiarity with the test apparatus increases over successive exposures to the chambers, the number of entries decreases.
(Note that entries were collected for every test, but drug effects on entries during earlier phases may be less reliable due to the confounding influence of changing familiarity with the apparatus across phases.)

C57 and BTBR mice [3] = experiment: Social preference procedure: sociability test; settings: 1 mg/kg IP
Method: as §1, §2, §3
A single sociability session occurred the day after the novelty preference test, where one compartment contained a wire mesh cup with a dummy mouse inside while the other compartment contained a male NIH Swiss stranger mouse inside the previously empty cup (see FIG. 4). […] The position of the dummy mouse (left or right compartment) remained the same for each subject as during the novelty test the day before, thereby counterbalancing the position of the stranger mouse across subjects. NIH Swiss stranger mice were similar in mass and appearance to the dummy PVC mice, and were housed separately from the experimental subjects (C57 and BTBR mice) in the colony facility. The first time the experimental subjects ever encountered the stranger mice was when they entered the compartment where they were contained. During this session, mice were weighed, administered the same injection as the day before, and returned to their home cage for a 30 min pretreatment period. Mice were then introduced into the T-junction and allowed to explore both preference compartments for 15 minutes. Sociability tests always occurred on Wednesdays or Thursdays to prevent any weekend testing.

SMILES	effect on novelty preference (time spent with dummy mouse) (C57 and BTBR mice [1])	total entries during social novelty test (C57 and BTBR mice [2]; 1 mg/kg, C57 mice)	sociability (time spent with stranger mouse) (C57 and BTBR mice [3]; BTBR mice)	sociability (time spent with stranger mouse) (C57 and BTBR mice [3]; C57 mice)	compartment entries during social novelty test (stimulation) (C57 and BTBR mice [2]; 1 mg/kg, BTBR mice, compared to (R)-I, racemic MDMA and saline)	compartment entries during social novelty test, change of stimulation with dose (C57 and BTBR mice [2]; BTBR mice)	compartment entries during social novelty test, change of stimulation with dose (C57 and BTBR mice [2]; C57 mice)
c1cc2c(cc1C[C@H]1CCCN1)OCO2 [(R)-I, (R)-2-[(2H-1,3-benzodioxol-5-yl)methyl]pyrrolidine]	no systematic effects	only slightly increased	minor increase in the sociability response	no impact			
c1cc2c(cc1C[C@@H]1CCCN1)OCO2 [(S)-I, (S)-2-[(2H-1,3-benzodioxol-5-yl)methyl]pyrrolidine]	no systematic effects	only slightly increased	strong response in sociability	slight increase in time spent with the stranger mouse	substantially stimulated	increase with increasing dose	reverses

Reference: patent publication US12042478B2, “(R)-2-[(2H-1,3-benzodioxol-5-yl)methyl]pyrrolidine and processes for preparation, compositions and uses thereof” (Pharmala Biotech Inc., priority 2022, dated 2024)
